Test results: article PMC8883597 (Xenobiotica; the fate of foreign compounds in biological …, 2021)
Like-named read-outs stand apart in the source and are kept apart here. Each block holds one compound with its values, some of them ahead of it.

Key:
[1] = male, Sprague Dawley, rat, in vivo, iv, 2.25 mg/kg
[2] = rat, in vivo
[3] = male, Sprague Dawley, rat, in vivo
[4] = Toxicokinetics in plasma after a single gavage administration; conditions: male rats
[5] = rat, in vivo, 10 mg/kg; cited from earlier work
rats = conditions: ref Hirata-Koizumi et al., 2008b, cited from earlier work
[6] = male, Sprague Dawley, 300 mg/kg
[7] = male, Sprague Dawley, po, 300 mg/kg
[8] = male, Sprague Dawley, po, 30 mg/kg

Compound: CCCCCCCCOC(=O)CCc1cc(-n2nc3ccccc3n2)c(O)c(C(C)(C)C)c1 [tBuPrOcEst-BZT, 3-(2H-Benzotriazol-2-yl)-5-(1,1-dimethylethyl)-4-hydroxybenzenepropanoic acid, octyl ester]
AUC [1]: 13800 ± 300 ng·h/mL | Cmax [1]: 22400 ± 900 ng/mL | Half-life (gamma half-life) [1]: 19.2 ± 1.1 h | AUC ([2]; male, Sprague Dawley, 30 mg/kg): 42300 ± 11500 ng·h/mL | Cmax ([2]; male, Sprague Dawley, 30 mg/kg): 12800 ± 3100 ng/mL | Half-life (beta half-life) ([2]; male, Sprague Dawley, 30 mg/kg): 9.53 ± 1.73 h | Tmax ([2]; male, Sprague Dawley, 30 mg/kg): 1.07 ± 0.30 h | AUC [2, 6]: 294000 ± 85000 ng·h/mL | Cmax [2, 6]: 47800 ± 13500 ng/mL | Half-life (beta half-life) [2, 6]: 13.6 ± 6.4 h | Tmax [2, 6]: 1.91 ± 0.56 h | Cmax [2, 7]: 12800 to 47800 ng/mL | Tmax [2, 7]: 1.07 to 1.91 h | plasma elimination half-life (beta half-life) [2, 7]: 9.53 to 13.6 h | concentration of the parent in plasma ([2]; po): mostly below LOD | Oral bioavailability ([3]; 30 mg/kg): 23.0% | Oral bioavailability ([3]; 300 mg/kg): 16.0%

Compound: CC(C)(C)c1ccc(O)c(-n2nc3ccccc3n2)c1 [tBu-BZT, 2-(2H-Benzotriazol-2-yl)-4-tert-butylphenol]
increase in AUC with a 10-fold increase in the dose ([4]; gavage 30 to 300 mg/kg): dose-proportional

Compound: CC(C)(C)c1cc(CCC(=O)OCCCCCCOC(=O)CCc2cc(-n3nc4ccccc4n3)c(O)c(C(C)(C)C)c2)cc(-n2nc3ccccc3n2)c1O [tBuPrHexEst-BZT, 3-(2H-benzotriazol-2-yl)-5-(1,1-dimethylethyl)-4-hydroxybenzenepropanoic acid, 1,6-hexanediyl ester]
Tmax (time at which Cmax was achieved) [5]: 1 to 2 h | apparent half-life [5]: ~ 12 h | maximum blood concentration (Cmax) [5]: < 0.13 µg/g

Half-life (beta half-life) ([2]; male, Sprague Dawley, 30 mg/kg): 1120 ± 5780 h | Cmax [2, 8]: 138 ± 1900 ng/mL | Tmax [2, 8]: 0.0196 ± 24.6 h | AUC [2, 7]: 29800 ± 14700 ng·h/mL | Cmax [2, 7]: 358 ± 26 ng/mL | Half-life (beta half-life) [2, 7]: 103 ± 72 h | plasma elimination half-life (beta half-life) [2, 7]: 103 to 1120 h
Compound: Cc1ccc(O)c(-n2nc3ccccc3n2)c1 [Drometrizole, 2-(2H-Benzotriazol-2-yl)-4-methylphenol]

time points where plasma concentrations were below LOD ([2]; male, Sprague Dawley, 30 mg/kg): 0.0333 h | AUC [2, 8]: 21000 ± 5300 ng·h/mL | Cmax [2, 8]: 2020 ± 490 ng/mL | Half-life (beta half-life) [2, 8]: 48.4 ± 116 h | Tmax [2, 8]: 3.08 ± 0.77 h | AUC [2, 7]: 41600 ± 11600 ng·h/mL | Cmax [2, 7]: 2450 ± 710 ng/mL | Half-life (beta half-life) [2, 7]: 37.5 ± 401 h | Tmax [2, 7]: 5.06 ± 1.24 h
Compound: Cc1cc(-n2nc3ccc(Cl)cc3n2)c(O)c(C(C)(C)C)c1 [Bumetrizole, 2-(5-chloro-2H-1,2,3-benzotriazol-2-yl)-6-(1,1-dimethylethyl)-4-methylphenol]

Compound: CCC(C)(C)c1cc(-n2nc3ccccc3n2)c(O)c(C(C)(C)CC)c1 [ditPe-BZT, 2-(2H-Benzotriazol-2-yl)-4,6-bis(1,1-dimethylpropyl)phenol]
Tmax [2, 8]: 2.96 ± 1.10 h | Half-life (beta half-life) [2, 7]: 17.1 ± 53.3 h | Oral bioavailability ([3]; 300 mg/kg): 5.53%

Compound: CC(C)(C)c1ccc(O)c(-n2nc3ccccc3n2)c1 [ditBu-BZT, 2-(2H-benzotriazol-2-yl)-4-tert-butylphenol]
toxicity finding (rats; gavage 0.1–12.5 mg/kg for 13 and 52 weeks): enlarged livers accompanied by histopathological changes | toxicity finding at the highest dose (rats; highest dose): Increased relative organ weights (e.g., brain and testes) and hematological effects

Compound: COC(=O)CCc1cc(-n2nc3ccccc3n2)c(O)c(C(C)(C)C)c1 [tBuPrMeEst-BZT, 3-(2H-benzotriazol-2-yl)-5-(1,1-dimethylethyl)-4-hydroxybenzenepropanoic acid, methyl ester]
Tmax (time at which Cmax was achieved) [5]: 1 to 2 h | maximum blood concentration (Cmax) [5]: < 2 µg/g

Compound: CC(C)(C)CC(C)(C)c1ccc(O)c(-n2nc3ccccc3n2)c1 [Octrizole, 2-(2H-Benzotriazol-2-yl)-4-(1,1,3,3-tetramethylbutyl)phenol]
time points where plasma concentrations were below LOD ([4]; single gavage 300 mg/kg group): 0.0333 h | AUC [1]: 3510 ± 440 ng·h/mL | Cmax [1]: 20600 ± 7800 ng/mL | Half-life (gamma half-life) [1]: 15.4 ± 2.4 h | AUC [2, 8]: 5980 ± 1950 ng·h/mL | Cmax [2, 8]: 561 ± 170 ng/mL | Half-life (beta half-life) [2, 8]: 56.8 ± 233 h | Tmax [2, 8]: 3.71 ± 1.08 h | AUC [2, 7]: 30000 ± 7400 ng·h/mL | Cmax [2, 7]: 3590 ± 850 ng/mL | Half-life (beta half-life) [2, 7]: 21.4 ± 18.2 h
